± gives the expanded uncertainty stated by the source.
Assays:
[1] = 298.15 K; 101.33 kPa; Liquid; Pycnometric method
[2] = molar heat capacity at constant pressure; settings: 298.15 K; 101.33 kPa; Liquid; Small sample (50 mg) DSC

Structure (SMILES): Cn1cc[n+](CCO)c1.N#C[N-]C#N [3-(2-hydroxyethyl)-1-methyl-1H-imidazol-3-ium dicyanoazanide]
- mass density [1]: 1120 ± 10 kg/m3
- molar heat capacity at constant pressure [2]: 231.85 ± 3.9 J/K/mol

Reference: the NIST ThermoML archive (doi:10.1016/j.tca.2011.02.016)
